Laboratory results: ChEMBL document CHEMBL1201862, “PubChem BioAssay data set” (2004)
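Following 48 hours of exposure in 96-well plates, responses at five concentrations were used to interpolate endpoints linearly. GI50 marks 50% less growth.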 Activity calls are given as the source filed them. Cut-off read from the data, not from the text of the source: active = GI50 up to about 1.1 µM and inactive = higher.

Experiments:
Test in all cases: NCI-60 cell line screen, 48 h
SNB-78 = test system: SNB-78
RXF 631 = test system: RXF 631
XF498 = test system: XF498
LXFL 529 = test system: LXFL 529
KM-20L2 = test system: KM-20L2
HOP-18 = test system: HOP-18
DMS-273 = test system: DMS-273
DLD-1 = test system: DLD-1
DMS-114 = test system: DMS-114

Measured: GI50

C/C(CN1C(=O)c2ccccc2C1=O)=N\NS(=O)(=O)c1ccc(Cl)cc1
inactive: SNB-78 > 100 µM | RXF 631 > 100 µM | XF498 > 100 µM | LXFL 529 > 100 µM | KM-20L2 > 100 µM | HOP-18 > 100 µM | DMS-273 > 100 µM | DLD-1 > 100 µM

CC(=O)C1C(=O)C(=O)N(CCN2C(=O)C(=O)C(C(C)=O)C2=O)C1=O (stereo not given)
inactive: RXF 631 > 100 µM | XF498 > 100 µM | LXFL 529 > 100 µM | KM-20L2 > 100 µM | HOP-18 > 100 µM | DMS-114 > 100 µM | DMS-273 > 100 µM

O=C1[C@H]2ON(c3ccccc3)C(c3ccccc3)[C@H]2C(=O)N1c1ccc(Cc2ccc(N3C(=O)[C@@H]4ON(c5ccccc5)C(c5ccccc5)[C@@H]4C3=O)cc2)cc1 (stereo not given in full)
inactive: SNB-78 > 100 µM | RXF 631 > 100 µM | LXFL 529 > 100 µM | KM-20L2 > 100 µM | HOP-18 > 100 µM | DMS-114 > 100 µM | DMS-273 > 100 µM | DLD-1 > 100 µM

NS(=O)(=O)c1ccc(NC(=O)c2cccc3c(=O)c4ccccc4[nH]c23)cc1
inactive: SNB-78 49.3 µM | XF498 11.5 µM | LXFL 529 30.6 µM | KM-20L2 38.6 µM | HOP-18 > 100 µM | DMS-114 74.8 µM | DMS-273 70.1 µM | DLD-1 > 100 µM

CC(C)N(C(=O)C12C3C4C5C3C1(C(=O)O)C5C42)C(C)C (stereo not given)
inactive: SNB-78 > 100 µM | RXF 631 > 100 µM | XF498 > 100 µM | LXFL 529 > 100 µM | KM-20L2 > 100 µM | DMS-114 > 100 µM | DMS-273 > 100 µM | DLD-1 > 100 µM

COc1cccc(N2C(=O)[C@H]3[C@H]4CC(C(C)(C)C)CC[C@H]4c4c([nH]c5ccccc45)[C@H]3C2=O)c1 (stereo not given in full)
inactive: SNB-78 14.5 µM | RXF 631 17.6 µM | LXFL 529 20 µM | DMS-114 17.7 µM | DMS-273 18.3 µM | DLD-1 22.5 µM

Cc1ccc(Nc2nc3c(s2)C(=O)c2ccccc2C3=O)cc1
inactive: SNB-78 2.49 µM | RXF 631 1.95 µM | XF498 1.94 µM | LXFL 529 1.63 µM | KM-20L2 17.5 µM | HOP-18 1.13 µM | DMS-114 1.52 µM | DMS-273 1.95 µM | DLD-1 2.07 µM

CC(C)[C@@H]1C=C(c2ccccc2)c2ccccc2C1C(C#N)(C#N)C(C)C (stereo not given in full)
inactive: SNB-78 > 100 µM | XF498 45 µM | LXFL 529 > 100 µM | KM-20L2 > 100 µM | HOP-18 > 100 µM | DMS-114 97.7 µM | DMS-273 48.6 µM | DLD-1 > 100 µM

CC(=O)c1cc2c3c(c1)c1cc4c(cc1c(=O)n3CC2)OCO4
inactive: SNB-78 > 100 µM | RXF 631 21.5 µM | XF498 > 100 µM | LXFL 529 10.4 µM | KM-20L2 23.7 µM | HOP-18 13.5 µM | DMS-114 37.7 µM | DMS-273 7 µM | DLD-1 15.2 µM

Cc1nc2ccccc2c(=O)n1/N=C(\N=N\c1cc(Cl)ccc1Cl)c1cccc(-c2ccco2)c1
inactive: RXF 631 > 100 µM | HOP-18 > 100 µM | DMS-114 41.4 µM | DMS-273 63.2 µM | DLD-1 87.9 µM

O=S(=O)(N/N=C/c1ccc(Cl)c(Cl)c1)c1ccccc1
inactive: SNB-78 41.5 µM | XF498 32.2 µM | LXFL 529 30.4 µM | KM-20L2 62.1 µM | HOP-18 36.3 µM | DMS-114 23.8 µM | DMS-273 37.7 µM | DLD-1 31.3 µM

Cc1ccc(NC(=O)C(=O)C2NC(=S)NC2=O)c([N+](=O)[O-])c1 (stereo not given)
inactive: SNB-78 > 100 µM | XF498 > 100 µM | LXFL 529 > 100 µM | KM-20L2 > 100 µM | HOP-18 > 100 µM | DMS-114 > 100 µM | DMS-273 > 100 µM | DLD-1 > 100 µM

Cc1cc(O)nc(NN2C(Cl)C(=O)C2c2ccc(Cl)cc2)n1 (stereo not given)
inactive: SNB-78 17.9 µM | LXFL 529 5.86 µM | KM-20L2 20.6 µM | HOP-18 8.55 µM | DMS-114 13.5 µM | DMS-273 11.9 µM

CCc1c(OC(C)=O)c2c(NC3OC(COC(C)=O)C(OC(C)=O)C(OC(C)=O)C3OC(C)=O)nc(OC)nc2oc1=O (stereo not given)
inactive: SNB-78 > 100 µM | XF498 > 100 µM | LXFL 529 > 100 µM | KM-20L2 > 100 µM | HOP-18 > 100 µM | DMS-114 > 100 µM | DMS-273 > 100 µM | DLD-1 > 100 µM

Cc1ccc(S(=O)(=O)N/N=C\c2c3ccccc3[n+](C)c3ccccc23)cc1
inactive: SNB-78 61.7 µM | KM-20L2 31.7 µM | DMS-114 24.9 µM | DMS-273 22.1 µM | DLD-1 38.1 µM

O=C(O/N=C1/CCCC/C1=C\c1ccccc1)c1ccc(Cl)cc1
active: XF498 0.439 µM
inactive: SNB-78 > 100 µM | LXFL 529 48 µM | KM-20L2 > 100 µM | HOP-18 > 100 µM | DMS-273 > 100 µM | DLD-1 > 100 µM

CCN(CC)CCC(=O)Nc1ccc2c(c1)C(=O)c1ccc(NC(=O)CCN(CC)CC)cc1C2=O
inactive: SNB-78 5.96 µM | LXFL 529 3.11 µM | KM-20L2 14.6 µM | DMS-114 3.21 µM | DMS-273 1.19 µM | DLD-1 1.81 µM
active: HOP-18 0.475 µM

CC1(C)OCN(c2ccc(N3CCOCC3)cc2)Cn2c1nc1ccccc12
inactive: SNB-78 > 100 µM | LXFL 529 > 100 µM | KM-20L2 > 100 µM | HOP-18 > 100 µM | DMS-114 > 100 µM | DMS-273 80.9 µM | DLD-1 > 100 µM

c1cnc2nc3n(c2c1)CSC3
inactive: SNB-78 > 100 µM | XF498 > 100 µM | LXFL 529 > 100 µM | KM-20L2 > 100 µM | DMS-114 > 100 µM | DLD-1 > 100 µM

O=[N+]([O-])c1nccn1COCCI
inactive: SNB-78 > 100 µM | XF498 > 100 µM | LXFL 529 > 100 µM | KM-20L2 > 100 µM | DMS-114 > 100 µM | DMS-273 > 100 µM | DLD-1 > 100 µM

CC1CCC2(OCCO2)[C@]2(C)CC(O)C(=O)C=C12 (stereo not given in full)
inactive: XF498 > 100 µM | LXFL 529 > 100 µM | HOP-18 > 100 µM | DMS-114 > 100 µM | DMS-273 > 100 µM | DLD-1 > 100 µM

C=C1C(=O)C23C(O)C1CC[C@H]2C12CCCC(C)(COC(C)=O)[C@H]1[C@H](O)[C@]3(O)OC2 (stereo not given in full)
active: SNB-78 0.653 µM | LXFL 529 0.427 µM | DLD-1 0.577 µM
inactive: XF498 1.4 µM | KM-20L2 1.56 µM | HOP-18 1.27 µM | DMS-114 1.87 µM | DMS-273 1.94 µM

CC1(Cl)C(=O)NC(=O)N([C@H]2C[C@H](O)[C@@H](CO)O2)C1N=[N+]=[N-] (stereo not given in full)
inactive: SNB-78 > 100 µM | RXF 631 > 100 µM | XF498 > 100 µM | LXFL 529 > 100 µM | KM-20L2 > 100 µM | HOP-18 > 100 µM | DMS-114 > 94.8 µM | DMS-273 > 100 µM | DLD-1 > 100 µM

Cc1ccccc1-n1c2nc(=O)n(C)c(=O)c-2nc2ccccc21
inactive: SNB-78 18.6 µM | RXF 631 14.6 µM | XF498 17.5 µM | LXFL 529 12.5 µM | KM-20L2 7.35 µM | HOP-18 10.5 µM | DMS-114 4.9 µM | DMS-273 10.9 µM | DLD-1 16.7 µM

COc1ccc(CC2NCCc3c2[nH]c2ccccc32)cc1 (stereo not given)
inactive: SNB-78 70.6 µM | RXF 631 25.3 µM | XF498 16.9 µM | LXFL 529 62.4 µM | KM-20L2 33.7 µM | DMS-114 33.1 µM | DMS-273 26.5 µM | DLD-1 > 100 µM
